Test results: US20090298752A1, “APLIDINE TREATMENT OF CANCERS” (PHARMA MAR, S.A., priority 1999, published 2009)
Several values for one entry are separate records, joined by “and”; a condition that tells them apart may be missing. Identical values can stand only once. Entries after “also recorded” stand apart in the source; their conditions may differ.

Assays:
[1] = Phase I, 24 h infusion weekly x3 q4wk: toxicity and pharmacokinetics; type: in vivo, human
Description: A phase I trial was performed using 24 hour infusion weekly×3 followed by 1 wk rest. 32 patients (median age 58 yrs, median ECOG 1) with advanced, previously treated solid tumours have been treated. They have received 64 courses (median/pt: 2 (1-6)) across 8 dose levels: 133 (3 pts), 266 (3 pts), 532 (3 pts), 1000 (3 pts), 2000 (3 pts), 3000 (3 pts), 4500 (4 pts) and 3750 mcg/m^2/wk (10 pts). 2 out of 3 evaluable patients had DLT at 4500 mcg/m^2/wk: grade (G) 4 reversible neuromuscular toxicity (biopsy prevent type II muscular atrophy) and G4 CK increase (1 pt), and transient G3 transaminitis (1 pt). Other toxicities included G 1-2 malaise (most patients treated at ≧3000 mcg/m^2/wk), muscle cramps, G 1-2 emesis (responsive to antiemetics) and injection site reaction (very common and concentration-dependent). All patients have been sampled for PK analysis by a LC/MS/MS method. Pharmacokinetics are linear and the profiles fit a 2 compartment open model. […] Maintained plasma levels >1 ng/ml (active in vitro) were obtained at doses ≧3000 mcg/m^2. […] Four additional patients had minor responses or stable disease for >4 months. […] The recommended dose for future trials, 3750 mcg/m^2/wk×3, administered through a central vein catheter, is feasible and associated with mild toxicity.
Plasma aplidine concentrations were determined by liquid chromatography/tandem mass spectography with a limit of quantitation of 0.25 ng/mL and a broad linear range up to 16.00 ng/mL
A total of 15 samples were drawn up to 24 hours after the end of infusion

[2] = test system: cell cycle; conditions: flow cytometric analysis; cited from earlier work
[3] = test system: Prostate PC-3; assay: sc hollow fibre (HF), prostate tumour cells, rat; type: in vivo; conditions: 0.70 mg/kg, 0.7 mg/kg
Description: (§1) Different model systems were evaluated to provide the basis for further clinical work. Selective antitumour activities were seen against two histologically different solid tumours: human gastric and prostate carcinomas. Potent in vitro activity to primary gastric tumour specimens or Hs746T gastric tumour cells is evident with IC30 values of 146 and 450 pM, respectively. […] activities were evaluated in nude rodents using sc implanted tumour fragments or hollow fibres (HF) containing tumour cells.
Follow-up studies necessitated using rats for iv infusions. With this variation, a 24 hr iv infusion schedule produced similar activities against HF gastric (20%) and HF prostate (31%) tumour cells. Cytotoxicity was also found using a 5 day iv infusion schedule against HF prostate tumour cells (33%).

[4] = test system: Hs746T gastric tumour cells; assay: in vitro activity on gastric tumour cells; type: cell-based, human
Description: as §1

[5] = test system: VEGF mRNA; assay: VEGF mRNA in MOLT-4 cells (Rnase protection); type: cell-based, human
[6] = Phase I, 1 h weekly infusion x3 q4wk: toxicity and pharmacokinetics; type: in vivo, human; design: CL: unit not given here
Excerpt: Adult patients with advanced disease, PS<3, and appropriate organ function are considered eligible; patients receive aplidine wk×3/q^4 wks. 24 solid tumour patients have been entered: median (m) age 55 y, m ECOG=1, 15/24 patients treated with =>2 treatment cycles. Seven dose levels (DL) from 133 mcg/m^2/wk to 2700 mcg/m^2/wk have been assessed: 102 infusions are evaluable for toxicity (tox). […] At 2700 mcg/m^2/wk (4 pts), 1 had G3 hiperbilirrubinemia that has been considered to be dose limiting and therefore 2700 mcg/m^2/wk DL is being expanded. […] Plasma levels >1 ng/ml 24 hours after infusion are reachable form 1800 mcg/m^2/wk. […] Aplidine appears to be clinically feasible at pharmacologically appropriate dose levels.
Aplidine was administered as a 1 hour weekly×3 every four weeks

[7] = test system: CT-1, CT-2 and HT-29 cell lines; conditions: cited from earlier work
[8] = DL V, 2000 mcg/m^2/wk, 3 patients
[9] = DL VI, 3000 mcg/m^2/wk, 3 patients
[10] = DL VII (MTD), 4500 mcg/m^2/wk, 4 patients
[11] = DL VIII (RD), 3750 mcg/m^2/wk, 13 patients
[12] = 3-compartment model, preliminary

With aplidine the “evaluable patients with DLT” value ([1]; 4500 mcg/m^2/wk) was 2 out of 3, the “Recommended Dose” value ([1]; 24 h infusion weekly x3 q4wk) was 3750 μg/m^2/wk×3 and the “Inj. Site reaction G2 (worst toxicity per patient)” value ([1]; DL II, 266 mcg/m^2/wk, 3 patients) was 1. The “Asthenia G2 (worst toxicity per patient)” value ([1]; DL III, 532 mcg/m^2/wk, 3 patients) was 1, the “Inj. Site reaction G2 (worst toxicity per patient)” value ([1]; DL IV, 1000 mcg/m^2/wk, 3 patients) was 1 and the “Inj. Site reaction G2 (worst toxicity per patient)” value [1, 8] was 1. The “Nausea G2 (worst toxicity per patient)” value [1, 8] was 1, the “Asthenia G2 (worst toxicity per patient)” value [1, 9] was 1 and the “Asthenia G3 (worst toxicity per patient)” value [1, 9] was 1. For the same substance, the “Inj. Site reaction G2 (worst toxicity per patient)” value [1, 9] was 1, the “Nausea G3 (worst toxicity per patient)” value [1, 9] was 1 and the “Asthenia G2 (worst toxicity per patient)” value [1, 10] was 1. For the same substance, the “CPK elevation G4 (worst toxicity per patient)” value [1, 10] was 1, the “Inj. Site reaction G2 (worst toxicity per patient)” value [1, 10] was 1 and the “Myositis G3 (worst toxicity per patient)” value [1, 10] was 1. The “Transaminitis G3 (worst toxicity per patient)” value [1, 10] was 1, the “Asthenia G2 (worst toxicity per patient)” value [1, 11] was 3 and the “Hypersensitivity G3 (worst toxicity per patient)” value [1, 11] was 1. For the same substance, the “Inj. Site reaction G2 (worst toxicity per patient)” value [1, 11] was 3, the “Nausea G2 (worst toxicity per patient)” value [1, 11] was 2 and the “Transaminitis G3 (worst toxicity per patient)” value [1, 11] was 2. For the same substance, the “Transaminitis G4 (worst toxicity per patient)” value [1, 11] was 1, the plasma levels ([1]; DLs 1000 and 2000 mcg/m^2/w) was ~1 ng/mL and the “dose limiting toxicities (DLTs)” value ([1]; Example 3: 16 patients, 133-3000 mcg/m^2/wk x3) was “No dose limiting toxicities”. For the same substance, the “Maximum Tolerated Dose” value ([1]; Example 4) was 4500 μg/m^2/wk×3, the “elimination t ½” value ([1]; Example 4, preliminary data) was 10 to 24 h and the plasma levels ([1]; Example 4, preliminary data) was > 1 ng/mL. The MTD ([1]; Example 11) was 4500 mcg/m^2/wk, the “recommended dose for future trials” value ([1]; Example 11, central vein catheter) was 3750 mcg/m^2/wk×3 and the MTD ([1]; Example 12) was 4500 mcg/m^2/week×3. The haematological toxicity ([1]; Example 12) was “No haematological toxicity”, the “recommended dose for future trials” value ([1]; Example 12) was 3750 mcg/m^2/week×3 and the maintained plasma levels ([1]; doses ≧3000 mcg/m^2) was > 1 ng/mL. The “Blood cell accumulation as compared to plasma” value ([1]; in vivo) was 2-8 fold, the “dose from which potentially active plasma levels are reached” value ([1]; in vivo) was ≥ 2000 mcg/m^2 and the “coefficient of variation of clearance (Cl)” value ([1]; interpatient variability) was 45%. The Vss ([1]; median (quartiles)) was 611 L and 611 (434-733) L, the “clearance (Cl)” value ([1]; median (quartiles)) was 0.47 L/min and 0.47 (0.40-0.56) L/min and the “elimination t ½” value ([1]; median (quartiles)) was 18.8 h and 18.8 (15.3-25.4) h. The cell cycle pertubations [2] was “did not induce any apparent cell cycle pertubations”, the “Activity (% T/C.)” value ([3]; 24 hr.iv inf.) was 31 % T/C and the “Activity (% T/C.)” value ([3]; 5 day, iv inf) was 33 % T/C. For the same substance, the IC30 [4] was 0.45 nM, the “half life of VEGF mRNA, in words” value [5] was “does not change the half life of VEGF mRNA” and the “levels of VEGF mRNA, in words” value ([5]; 20 nM aplidine) was “strong decrease; also recorded: decrease in the mRNA encoding for VEGF”. The “initial phase median half-life” value [6, 12] was 2.4 min, the “intermediate phase median half-life” value [6, 12] was 1.4 h and the “terminal phase median half-life” value [6, 12] was 20.7 h. The “Hypertension G3 (worst toxicity per patient)” value ([6]; 133 mcg/m^2/wk x3, 3 patients) was “(1)”, the “Transaminitis G2 (worst toxicity per patient)” value ([6]; 133 mcg/m^2/wk x3, 3 patients) was 1 and the “Alk. Phos. G3 (worst toxicity per patient)” value ([6]; 266 mcg/m^2/wk x3, 3 patients) was “(1)”. The “Injection site reaction G2 (worst toxicity per patient)” value ([6]; 266 mcg/m^2/wk x3, 3 patients) was 1, the “Asthenia G2 (worst toxicity per patient)” value ([6]; 532 mcg/m^2/wk x3, 3 patients) was 1 and the “Transaminitis G3 (worst toxicity per patient)” value ([6]; 532 mcg/m^2/wk x3, 3 patients) was “(1)”. For the same substance, the “Asthenia G2 (worst toxicity per patient)” value ([6]; 800 mcg/m^2/wk x3, 3 patients) was 1(1), the “Asthenia G3 (worst toxicity per patient)” value ([6]; 800 mcg/m^2/wk x3, 3 patients) was 1(1) and the “CPK elevation G1 (worst toxicity per patient)” value ([6]; 800 mcg/m^2/wk x3, 3 patients) was 1. The “Hypertension G1 (worst toxicity per patient)” value ([6]; 800 mcg/m^2/wk x3, 3 patients) was 1, the “Injection site reaction G2 (worst toxicity per patient)” value ([6]; 800 mcg/m^2/wk x3, 3 patients) was 1 and the “Nausea/vomiting G2 (worst toxicity per patient)” value ([6]; 800 mcg/m^2/wk x3, 3 patients) was 3. The “Transaminitis G2 (worst toxicity per patient)” value ([6]; 800 mcg/m^2/wk x3, 3 patients) was 1, the “Asthenia G2 (worst toxicity per patient)” value ([6]; 1200 mcg/m^2/wk x3, 4 patients) was 3 and the “Injection site reaction G2 (worst toxicity per patient)” value ([6]; 1200 mcg/m^2/wk x3, 4 patients) was 1. The “Myalgia G3 (worst toxicity per patient)” value ([6]; 1200 mcg/m^2/wk x3, 4 patients) was “(1)”, the “Alk. Phos. G2 (worst toxicity per patient)” value ([6]; 1800 mcg/m^2/wk x3, 4 patients) was 1 and the “Asthenia G2 (worst toxicity per patient)” value ([6]; 1800 mcg/m^2/wk x3, 4 patients) was 2. For the same substance, the “Injection site reaction G2 (worst toxicity per patient)” value ([6]; 1800 mcg/m^2/wk x3, 4 patients) was 1, the “Nausea/vomiting G2 (worst toxicity per patient)” value ([6]; 1800 mcg/m^2/wk x3, 4 patients) was 3 and the “Transaminitis G2 (worst toxicity per patient)” value ([6]; 1800 mcg/m^2/wk x3, 4 patients) was 1. For the same substance, the “G3 hiperbilirrubinemia (dose limiting)” value ([6]; 2700 mcg/m^2/wk (4 pts)) was 1, the “Asthenia G2 (worst toxicity per patient)” value ([6]; 2700 mcg/m^2/wk x3, 8 patients) was 1(1) and the “Asthenia G3 (worst toxicity per patient)” value ([6]; 2700 mcg/m^2/wk x3, 8 patients) was 1(1). The “Injection site reaction G2 (worst toxicity per patient)” value ([6]; 2700 mcg/m^2/wk x3, 8 patients) was 3, the “Nausea/vomiting G2 (worst toxicity per patient)” value ([6]; 2700 mcg/m^2/wk x3, 8 patients) was 2 and the “Transaminitis G2 (worst toxicity per patient)” value ([6]; 2700 mcg/m^2/wk x3, 8 patients) was 1. The “Bilirrubin G3 (worst toxicity per patient)” value ([6]; 2700 mcg/m^2/wk x3, 8 patients, footnote DLT) was 1(1)^(2), the “CPK elevation G1 (worst toxicity per patient)” value ([6]; 3600 mcg/m^2/wk x3, 2 patients) was 1 and the clinically feasible dose ([6]; 1 hour infusion weekly with one week rest) was ≤ 3600 mcg/m^2 every week. For the same substance, the haematological tox ([6]; Example 13, 102 infusions) was “No haematological tox”, the CL ([6]; Example 13, median) was 0.60 and the “m Vss” value ([6]; Example 13, median) was 308 L/m^2. The “m elimination half life” value ([6]; Example 13, median) was 14.2 h, the Bone marrow toxicity ([6]; Example 17) was “has not been reported” and the “coefficient of variation of CL” value ([6]; Example 17, interpatient) was 33%. For the same substance, the Vss ([6]; Example 17, median (quartiles)) was 345 (220-398) L/m^2, the “t ½” value ([6]; Example 17, median (quartiles)) was 15.8 (13.3-19.5) h and the “plasma CL” value ([6]; Example 17, median, quartiles 288-407) was 329 mL/min/m^2. For the same substance, the “dose from which potentially therapeutic plasma levels are achievable” value ([6]; in vivo) was ≥ 1200 μg/m^2, the “Plasma levels 24 hours after infusion” value ([6]; reachable from 1800 mcg/m^2/wk) was > 1 ng/mL and the cytotoxic activity [7] was “dose-dependent cytotoxic activity”.
